{"source": "patent US7914797B2", "about": "(priority 2005, dated 2011)"}
{"molecular_target": "HLA-A2 on T2 cells (Homo sapiens, UniProt P04439, D140Y/D185E/D98H/E176V/E277Q/G131W/G231S/I119V/I121R/I166T/I218V/L300P/L318F/N151K/N90K/P208A/P217A/Q86G/Q94H/R138H/R169H/T345S)", "format": "binding"}
{"sequence": "LLTEVETYV [M1 3-11]", "binding of peptide to HLA-A2 on T2 cells": "High and dose dependent binding"}
{"sequence": "PKYVKQNTLKLAT [HA 307-319]", "binding of peptide to HLA-A2 on T2 cells": "some low binding capacity, which was not dose dependent"}
{"sequence": "ELRSRYWAI [NP 380-388]", "binding of peptide to HLA-A2 on T2 cells": "some low binding capacity, which was not dose dependent"}
{"sequence": "SKAYSNCYPYDVPDYASL [HA 91-108 peptide]", "binding of peptide to HLA-A2 on T2 cells": "binding capacity only at the higher (100 μM) concentration"}
